Source: article PMC10576769 (Nature Communications, 2023)

Columns and labels:
[1] = biological target: T1, LmPC-PLC (Listeria monocytogenes serovar 1/2a, UniProt P33378); assay type: biochemical; conditions: 100% POPC MLVs […], 20 mM MES pH 6.5, 150 mM NaCl, 50 μM ZnSO4, 37 °C, replicate 1
[2] = biological target: T1, LmPC-PLC; assay: biochemical; assay type: biochemical; conditions: for relative activity of LmPC-PLC WT on 4-NPPC (compared to uninhibited activity): Fig. 4g; for Activity of LmPC-PLC towards 4-NPPC (slope): 50 μM ZnSO4
[3] = biological target: broad-range phospholipase C from Listeria monocytogenes (LmPC-PLC), wild type, mature form (Listeria monocytogenes) (UniProt P33378)

T1 sequence (P33378 52-289 limits assumed): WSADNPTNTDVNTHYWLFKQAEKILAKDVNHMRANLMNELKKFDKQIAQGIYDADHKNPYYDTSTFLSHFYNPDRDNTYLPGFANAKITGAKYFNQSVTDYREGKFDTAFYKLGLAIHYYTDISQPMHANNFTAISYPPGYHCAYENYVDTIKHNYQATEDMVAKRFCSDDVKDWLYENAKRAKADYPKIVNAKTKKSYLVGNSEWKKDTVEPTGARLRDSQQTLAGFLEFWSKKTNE
Sequence of broad-range phospholipase C from Listeria monocytogenes (LmPC-PLC), wild type, mature form (P33378 52-289): as the sequence (P33378 52-289 limits assumed) above

## CC[C@H](C)[C@H](NC(=O)[C@H](CC(=O)O)NC(=O)[C@H](Cc1c[nH]cn1)NC(=O)[C@@H]1CCCN1C(=O)[C@H](C)NC(=O)[C@H](C)NC(=O)[C@@H]1CCCN1C(=O)[C@@H](NC(=O)[C@H](CCC(N)=O)NC(=O)[C@H](CC(C)C)NC(=O)[C@H](Cc1ccc(O)cc1)NC(=O)[C@H](CCC(=O)O)NC(=O)[C@H](CC(=O)O)NC(=O)[C@H](CS)NC(=O)[C@H](CS)NC(=O)[C@H](C)NC(=O)[C@@H](N)CC(N)=O)[C@@H](C)O)C(=O)N[C@@H](CC(=O)O)C(=O)N[C@@H](CO)C(=O)N[C@@H](CCCCN)C(=O)N[C@@H](CC(C)C)C(=O)N1CCC[C@H]1C(=O)N[C@@H](Cc1c[nH]cn1)C(=O)N[C@@H](CCCCN)C(=O)N[C@@H](CC(C)C)C(=O)N[C@@H](CO)C(=O)O [NS-26]
[1]; Fig. 4f, peptide 10 uM, PC-PLC 50 nM
  relative activity on POPC (compared to uninhibited activity), Lm: 0.3051
[1]; Fig. 4h, peptide 100 uM as printed in the head (legend and method: 10 μM), enzyme 50 nM
  relative activity of LmPC-PLC WT on POPC (compared to uninhibited activity): 0.2837
[2]; Fig. 4e, peptide 100uM, PC-PLC 500 nM, 4-NPPC 1 mM, 20 mM MES pH 6.5, 150 mM NaCl, 500 μM ZnSO4, 37 °C, replicate 1
  relative activity on 4-NPPC (compared to uninhibited activity), Lm: 0.3179
[2]; as E100, replicate 2
  relative activity of LmPC-PLC WT on 4-NPPC (compared to uninhibited activity): 0.2706
[2]; as E100, replicate 3
  relative activity of LmPC-PLC WT on 4-NPPC (compared to uninhibited activity): 0.2574
[2]; peptide 100 uM, enzyme 500 nM, 4-NPPC 1 mM, 20 mM MES pH 6.5, 150 mM NaCl, 500 μM ZnSO4, 37 °C, replicate 1
  relative activity of LmPC-PLC WT on 4-NPPC (compared to uninhibited activity): 0.2356
[2]; IC50, 95% CI, as IC50, 95% CI from the fit
  IC50: 4.9 to 33.9 µM
[2]; IC50, LmPC-PLC 500 nM, 4-NPPC 1 mM, 20 mM MES pH 6.5, 150 mM NaCl, 500 μM ZnSO4, 37 °C, four-parameter logistic fit, n = 3
  IC50: 9.4 µM

## O=C(O)CCP(CCC(=O)O)CCC(=O)O [TCEP]
[2]; 1 mM TCEP, Zn 500 uM, LmPC-PLC 500 nM, 4-NPPC 1 mM, replicate 1
  Activity of LmPC-PLC, 4-NPPC as substrate (slope): 6.624e-5
[2]; 1 mM TCEP, Zn 500 uM, LmPC-PLC 500 nM, 4-NPPC 1 mM, replicate 2
  Activity of LmPC-PLC, 4-NPPC as substrate (slope): 6.51e-5
[2]; 1 mM TCEP, Zn 500 uM, LmPC-PLC 500 nM, 4-NPPC 1 mM, replicate 3
  Activity of LmPC-PLC, 4-NPPC as substrate (slope): 6.545e-5
[2]; 1 mM TCEP, Zn 5000 uM, LmPC-PLC 500 nM, 4-NPPC 1 mM, replicate 1
  Activity of LmPC-PLC, 4-NPPC as substrate (slope): 0.0001618
[2]; 1 mM TCEP, Zn 5000 uM, LmPC-PLC 500 nM, 4-NPPC 1 mM, replicate 2
  Activity of LmPC-PLC, 4-NPPC as substrate (slope): 0.0001898
[2]; 1 mM TCEP, Zn 5000 uM, LmPC-PLC 500 nM, 4-NPPC 1 mM, replicate 3
  Activity of LmPC-PLC, 4-NPPC as substrate (slope): 0.0002041
[2]; 5 mM TCEP, Zn 500 uM, LmPC-PLC 500 nM, 4-NPPC 1 mM, replicate 1, value 0 = no slope could be determined
  Activity of LmPC-PLC, 4-NPPC as substrate (slope): 0.00000
[2]; 5 mM TCEP, Zn 500 uM, LmPC-PLC 500 nM, 4-NPPC 1 mM, replicate 2, value 0 = no slope could be determined
  Activity of LmPC-PLC, 4-NPPC as substrate (slope): 0.00000
[2]; 5 mM TCEP, Zn 500 uM, LmPC-PLC 500 nM, 4-NPPC 1 mM, replicate 3, value 0 = no slope could be determined
  Activity of LmPC-PLC, 4-NPPC as substrate (slope): 0.00000
[2]; 5 mM TCEP, Zn 5000 uM, LmPC-PLC 500 nM, 4-NPPC 1 mM, replicate 1, value 0 = no slope could be determined
  Activity of LmPC-PLC, 4-NPPC as substrate (slope): 0.00000
[2]; 5 mM TCEP, Zn 5000 uM, LmPC-PLC 500 nM, 4-NPPC 1 mM, replicate 2, value 0 = no slope could be determined
  Activity of LmPC-PLC, 4-NPPC as substrate (slope): 0.00000
[2]; 5 mM TCEP, Zn 5000 uM, LmPC-PLC 500 nM, 4-NPPC 1 mM, replicate 3, value 0 = no slope could be determined
  Activity of LmPC-PLC, 4-NPPC as substrate (slope): 0.00000
[2]; 20 mM TCEP, Zn 500 uM, LmPC-PLC 500 nM, 4-NPPC 1 mM, replicate 1, value 0 = no slope could be determined
  Activity of LmPC-PLC, 4-NPPC as substrate (slope): 0.00000
[2]; 20 mM TCEP, Zn 500 uM, LmPC-PLC 500 nM, 4-NPPC 1 mM, replicate 2, value 0 = no slope could be determined
  Activity of LmPC-PLC, 4-NPPC as substrate (slope): 0.00000
[2]; 20 mM TCEP, Zn 500 uM, LmPC-PLC 500 nM, 4-NPPC 1 mM, replicate 3, value 0 = no slope could be determined
  Activity of LmPC-PLC, 4-NPPC as substrate (slope): 0.00000
[2]; 20 mM TCEP, Zn 5000 uM, LmPC-PLC 500 nM, 4-NPPC 1 mM, replicate 1, value 0 = no slope could be determined
  Activity of LmPC-PLC, 4-NPPC as substrate (slope): 0.00000
[2]; 20 mM TCEP, Zn 5000 uM, LmPC-PLC 500 nM, 4-NPPC 1 mM, replicate 2, value 0 = no slope could be determined
  Activity of LmPC-PLC, 4-NPPC as substrate (slope): 0.00000
[2]; 20 mM TCEP, Zn 5000 uM, LmPC-PLC 500 nM, 4-NPPC 1 mM, replicate 3, value 0 = no slope could be determined
  Activity of LmPC-PLC, 4-NPPC as substrate (slope): 0.00000

## c1ccc(CN(CCN(Cc2ccccn2)Cc2ccccn2)Cc2ccccn2)nc1 [TPEN, N,N,N′,N′-tetrakis(2-pyridinylmethyl)−1,2-ethanediamine]
[2]; LmPC-PLC 500 nM, 4-NPPC 1 mM, pH 6.5, 50 μM ZnSO4, Supplementary Fig. 10
  inhibition of LmPC-PLC compared with O-phe: even stronger inhibition
[2]; inhibitor 2 uM, LmPC-PLC 500 nM, 4-NPPC 1 mM, 20 mM MES pH 6.5, 150 mM NaCl, replicate 1 of N=3
  Activity of LmPC-PLC towards 4-NPPC (slope): 0.0004788 abs/min
[2]; inhibitor 2 uM, LmPC-PLC 500 nM, 4-NPPC 1 mM, 20 mM MES pH 6.5, 150 mM NaCl, replicate 2 of N=3
  Activity of LmPC-PLC towards 4-NPPC (slope): 0.0004923 abs/min
[2]; inhibitor 2 uM, LmPC-PLC 500 nM, 4-NPPC 1 mM, 20 mM MES pH 6.5, 150 mM NaCl, replicate 3 of N=3
  Activity of LmPC-PLC towards 4-NPPC (slope): 0.0004163 abs/min
[2]; inhibitor 4 uM, LmPC-PLC 500 nM, 4-NPPC 1 mM, 20 mM MES pH 6.5, 150 mM NaCl, replicate 1 of N=3
  Activity of LmPC-PLC towards 4-NPPC (slope): 0.0004484 abs/min
[2]; inhibitor 4 uM, LmPC-PLC 500 nM, 4-NPPC 1 mM, 20 mM MES pH 6.5, 150 mM NaCl, replicate 2 of N=3
  Activity of LmPC-PLC towards 4-NPPC (slope): 0.0005039 abs/min
[2]; inhibitor 4 uM, LmPC-PLC 500 nM, 4-NPPC 1 mM, 20 mM MES pH 6.5, 150 mM NaCl, replicate 3 of N=3
  Activity of LmPC-PLC towards 4-NPPC (slope): 0.0004264 abs/min
[2]; inhibitor 8 uM, LmPC-PLC 500 nM, 4-NPPC 1 mM, 20 mM MES pH 6.5, 150 mM NaCl, replicate 1 of N=3
  Activity of LmPC-PLC towards 4-NPPC (slope): 0.0004334 abs/min
[2]; inhibitor 8 uM, LmPC-PLC 500 nM, 4-NPPC 1 mM, 20 mM MES pH 6.5, 150 mM NaCl, replicate 2 of N=3
  Activity of LmPC-PLC towards 4-NPPC (slope): 0.0004696 abs/min
[2]; inhibitor 8 uM, LmPC-PLC 500 nM, 4-NPPC 1 mM, 20 mM MES pH 6.5, 150 mM NaCl, replicate 3 of N=3
  Activity of LmPC-PLC towards 4-NPPC (slope): 0.0004182 abs/min
[2]; inhibitor 16 uM, LmPC-PLC 500 nM, 4-NPPC 1 mM, 20 mM MES pH 6.5, 150 mM NaCl, replicate 1 of N=3
  Activity of LmPC-PLC towards 4-NPPC (slope): 0.0003725 abs/min
[2]; inhibitor 16 uM, LmPC-PLC 500 nM, 4-NPPC 1 mM, 20 mM MES pH 6.5, 150 mM NaCl, replicate 2 of N=3
  Activity of LmPC-PLC towards 4-NPPC (slope): 0.0004155 abs/min
[2]; inhibitor 16 uM, LmPC-PLC 500 nM, 4-NPPC 1 mM, 20 mM MES pH 6.5, 150 mM NaCl, replicate 3 of N=3
  Activity of LmPC-PLC towards 4-NPPC (slope): 0.0003534 abs/min
[2]; inhibitor 31 uM, LmPC-PLC 500 nM, 4-NPPC 1 mM, 20 mM MES pH 6.5, 150 mM NaCl, replicate 1 of N=3
  Activity of LmPC-PLC towards 4-NPPC (slope): 0.0002559 abs/min
[2]; inhibitor 31 uM, LmPC-PLC 500 nM, 4-NPPC 1 mM, 20 mM MES pH 6.5, 150 mM NaCl, replicate 2 of N=3
  Activity of LmPC-PLC towards 4-NPPC (slope): 0.0003429 abs/min
[2]; inhibitor 31 uM, LmPC-PLC 500 nM, 4-NPPC 1 mM, 20 mM MES pH 6.5, 150 mM NaCl, replicate 3 of N=3
  Activity of LmPC-PLC towards 4-NPPC (slope): 0.0003443 abs/min

## [Zn] [Zn]
[2]; Zn 500 uM, 0 mM TCEP, LmPC-PLC 500 nM, 4-NPPC 1 mM, replicate 1
  Activity of LmPC-PLC, 4-NPPC as substrate (slope): 0.0003721
[2]; Zn 500 uM, 0 mM TCEP, LmPC-PLC 500 nM, 4-NPPC 1 mM, replicate 2
  Activity of LmPC-PLC, 4-NPPC as substrate (slope): 0.0004616
[2]; Zn 500 uM, 0 mM TCEP, LmPC-PLC 500 nM, 4-NPPC 1 mM, replicate 3
  Activity of LmPC-PLC, 4-NPPC as substrate (slope): 0.0006377
[2]; Zn 5000 uM, 0 mM TCEP, LmPC-PLC 500 nM, 4-NPPC 1 mM, replicate 1
  Activity of LmPC-PLC, 4-NPPC as substrate (slope): 0.0007074
[2]; Zn 5000 uM, 0 mM TCEP, LmPC-PLC 500 nM, 4-NPPC 1 mM, replicate 2
  Activity of LmPC-PLC, 4-NPPC as substrate (slope): 0.000691
[2]; Zn 5000 uM, 0 mM TCEP, LmPC-PLC 500 nM, 4-NPPC 1 mM, replicate 3
  Activity of LmPC-PLC, 4-NPPC as substrate (slope): 0.0004664

## broad-range phospholipase C from Listeria monocytogenes (LmPC-PLC), wild type, mature form (from UniProt P33378 52-289) (enzyme)
[3]
  stoichiometry N: 2
